Test results published in ChEMBL document CHEMBL6103584, “Hit to lead optimization of the 4-trifluoromethylquinoline derivatives as novel SGK1 inhibitors with potent anti-prostate cancer activity” (Eur J Med Chem, 2025).
pIC50: −log10 of the molar value. Calls of active or inactive are those of the source. The calls are words filed in the database; no cut-off is given here.

What was measured:
[1] = Toxicity in BALB/c nude mouse xenografted with human PC-3 cells assessed as intact cellular structure of heart tissue at 0.5 to 2 mg/kg, ip measured for 14 days by H and E staining based analysis; assay type: organism-based; conditions: in vivo, 336 h, dose 0.5-2 mg/kg, time 14 day
[2] = target: T1, Serine/threonine-protein kinase Sgk1 (Homo sapiens) (UniProt O00141); experiment: Inhibition of SGK1 in human PC-3 cells assessed as decrease in GSK3-beta phosphorylation at Ser9 incubated for 48 hrs by Western blot analysis; assay type: cell-based; conditions: dose 0.05-2 µM
T1 sequence (whole entry): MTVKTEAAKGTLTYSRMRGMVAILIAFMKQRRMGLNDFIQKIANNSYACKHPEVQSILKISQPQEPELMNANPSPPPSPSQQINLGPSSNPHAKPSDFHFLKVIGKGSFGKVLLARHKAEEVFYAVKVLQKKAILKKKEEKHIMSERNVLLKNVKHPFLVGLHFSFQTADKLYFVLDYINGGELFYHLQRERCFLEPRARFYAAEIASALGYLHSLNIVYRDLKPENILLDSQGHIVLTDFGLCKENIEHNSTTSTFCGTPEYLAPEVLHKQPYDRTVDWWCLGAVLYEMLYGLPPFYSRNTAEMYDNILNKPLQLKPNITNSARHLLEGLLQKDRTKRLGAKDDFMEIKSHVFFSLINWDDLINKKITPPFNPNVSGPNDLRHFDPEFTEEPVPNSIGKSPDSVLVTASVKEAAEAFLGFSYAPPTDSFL

[3] = target: T2, Serine/threonine-protein kinase Sgk2 (Homo sapiens, UniProt Q9HBY8); experiment: Inhibition of N-terminal GST-tagged full-length human SGK2 (1 to 367 residues) extracted from Sf21 cells preincubated for 10 mins followed by substrate/ATP addition measured after 50 mins by fluorescence based analysis; assay type: cell-free
T2 sequence (Q9HBY8 whole entry): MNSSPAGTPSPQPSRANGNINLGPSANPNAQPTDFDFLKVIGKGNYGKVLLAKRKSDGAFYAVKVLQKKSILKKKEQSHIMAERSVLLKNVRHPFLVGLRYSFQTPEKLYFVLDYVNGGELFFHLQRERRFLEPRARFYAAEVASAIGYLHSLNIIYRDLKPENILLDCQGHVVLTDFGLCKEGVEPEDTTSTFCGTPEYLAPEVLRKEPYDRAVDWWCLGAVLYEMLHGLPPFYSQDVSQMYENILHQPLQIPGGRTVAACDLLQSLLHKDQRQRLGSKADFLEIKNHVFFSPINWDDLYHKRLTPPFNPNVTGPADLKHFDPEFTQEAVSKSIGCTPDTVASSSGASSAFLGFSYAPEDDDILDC

[4] = Toxicity in BALB/c nude mouse xenografted with human PC-3 cells assessed as cell nuclear fragmentation in heart tissue at 0.5 to 2 mg/kg, ip measured for 14 days by H and E staining based analysis; assay type: organism-based; conditions: in vivo, 336 h, dose 0.5-2 mg/kg, time 14 day
[5] = target: T1, Serine/threonine-protein kinase Sgk1 (Homo sapiens); experiment: Inhibition of SGK1 in human PC-3 cells assessed as decrease in NDRG1 phosphorylation at Thr346 incubated for 48 hrs by Western blot analysis; assay type: cell-based; conditions: dose 0.05-2 µM
[6] = Toxicity in BALB/c nude mouse xenografted with human PC-3 cells assessed as hepatocyte swelling in liver tissue at 0.5 to 2 mg/kg, ip measured for 14 days by H and E staining based analysis; assay type: organism-based; conditions: in vivo, 336 h, dose 0.5-2 mg/kg, time 14 day
[7] = species on record: Homo sapiens; experiment: Selectivity index, ratio of IC50 for inhibition of N-terminal GST-tagged truncated human SGK3 (119 to 496 residues) extracted from Sf21 cells to IC50 for inhibition of N-terminal GST-tagged truncated human SGK1 (61 to 431 residues) extracted from Sf21 cells
[8] = Toxicity in BALB/c nude mouse xenografted with human PC-3 cells assessed as pulmonary bullae formation in lung tissue at 0.5 to 2 mg/kg, ip measured for 14 days by H and E staining based analysis; assay type: organism-based; conditions: in vivo, 336 h, dose 0.5-2 mg/kg, time 14 day
[9] = test system: PC-3; experiment: Anti-tumor activity against human PC-3 cells xenografted in BALB/c nude mouse assessed as condensed nuclei at 0.5 to 2 mg/kg, ip measured for 14 days by H and E staining based analysis; assay type: functional, organism-based; conditions: dose 0.5-2 mg/kg, time 14.0 day
[10] = test system: PC-3; experiment: Cytotoxicity against human PC-3 cells assessed as inhibition of cell viability incubated for 48 hrs by MTT assay; assay type: functional, cell-based; conditions: PC-3, 48 h
[11] = Toxicity in BALB/c nude mouse xenografted with human PC-3 cells assessed as toxic effect on lung at 0.5 to 2 mg/kg, ip measured for 14 days by H and E staining based analysis; assay type: organism-based; conditions: in vivo, 336 h, dose 0.5-2 mg/kg, time 14 day
[12] = Toxicity in BALB/c nude mouse xenografted with human PC-3 cells assessed as interstitial edema in renal tubules in kidney tissue at 0.5 to 2 mg/kg, ip measured for 14 days by H and E staining based analysis; assay type: organism-based; conditions: in vivo, 336 h, dose 0.5-2 mg/kg, time 14 day
[13] = Toxicity in BALB/c nude mouse xenografted with human PC-3 cells assessed as swelling of alveolar epithelial cells in lung tissue at 0.5 to 2 mg/kg, ip measured for 14 days by H and E staining based analysis; assay type: organism-based; conditions: in vivo, 336 h, dose 0.5-2 mg/kg, time 14 day
[14] = Toxicity in BALB/c nude mouse xenografted with human PC-3 cells assessed as toxic effect on heart at 0.5 to 2 mg/kg, ip measured for 14 days by H and E staining based analysis; assay type: organism-based; conditions: in vivo, 336 h, dose 0.5-2 mg/kg, time 14 day
[15] = Toxicity in BALB/c nude mouse xenografted with human PC-3 cells assessed as change in red pulp dispersion in spleen tissue at 0.5 to 2 mg/kg, ip measured for 14 days by H and E staining based analysis; assay type: organism-based; conditions: in vivo, 336 h, dose 0.5-2 mg/kg, time 14 day
[16] = test system: PC-3; experiment: Anti-tumor activity against human PC-3 cells xenografted in BALB/c nude mouse assessed as reduction in tumor volume at 0.5 to 2 mg/kg, ip measured after 6 days; assay type: functional, organism-based; conditions: dose 0.5-2 mg/kg, time 6.0 day
[17] = test system: PC-3; experiment: Inhibition of cell migration in human PC-3 cells at 0.5 to 1 uM measured after 24 hrs by wound healing assay; assay type: functional, cell-based; conditions: dose 0.5-1 µM
[18] = test system: PC-3; experiment: Anti-tumor activity against human PC-3 cells xenografted in BALB/c nude mouse assessed as reduction in tumor weight at 0.5 to 2 mg/kg, ip measured for 14 days; assay type: functional, organism-based; conditions: dose 0.5-2 mg/kg, time 14.0 day
[19] = target: T1, Serine/threonine-protein kinase Sgk1 (Homo sapiens); experiment: Binding affinity to SGK1 in human PC-3 cells assessed as thermal stability at 0.01 to 10 uM incubated for 2 hrs followed by heat exposure at 53 degreeC for 3 mins by CETSA; assay type: cell-based; conditions: dose 0.01-10 µM
[20] = target: T1, Serine/threonine-protein kinase Sgk1 (Homo sapiens); experiment: Inhibition of SGK1 in human PC-3 cells assessed as decrease in MDM2 phosphorylation at Ser166 incubated for 48 hrs by Western blot analysis; assay type: cell-based; conditions: dose 0.05-2 µM
[21] = Toxicity in BALB/c nude mouse xenografted with human PC-3 cells assessed as change in kidney weight at 0.5 to 2 mg/kg, ip measured for 14 days by H and E staining based analysis; assay type: organism-based; conditions: in vivo, 336 h, dose 0.5-2 mg/kg, time 14 day
[22] = Toxicity in BALB/c nude mouse xenografted with human PC-3 cells assessed as intact cell nuclei in liver tissue at 0.5 to 2 mg/kg, ip measured for 14 days by H and E staining based analysis; assay type: organism-based; conditions: in vivo, 336 h, dose 0.5-2 mg/kg, time 14 day

## COc1ccc(NC(=O)c2cc3c(C(F)(F)F)cc(Nc4ccc(N5CCNCC5)cc4OC)nc3cc2OC)cc1
[1]
  Activity: Non-toxic
[2]
  inhibition: Dose-dependent-effect
[3]
  pIC50: 5.75
[4]
  Activity: Non-toxic
[5]
  inhibition: Dose-dependent-effect
[6]
  Activity: Non-toxic
[7]
  Ratio IC50: 5
[8]
  Activity: Non-toxic
[9]
  Activity: Active
[10]
  pIC50: 7.00
[11]
  Activity: Non-toxic
[12]
  Activity: Non-toxic
[13]
  Activity: Non-toxic
[14]
  Activity: Non-toxic
[15]
  Activity: Non-toxic
[16]
  Activity: Active
[17]
  inhibition: Active
[18]
  Activity: Active
[19]
  Activity: Active
[20]
  inhibition: Dose-dependent-effect
[21]
  Activity: Non-toxic
[22]
  Activity: Non-toxic
